Literature values as cited in patent US12434072B2, “Methods and systems for neural stimulation via visual, auditory and peripheral nerve stimulations” (Cognito Therapeutics, Inc., priority 2016, dated 2025).

Key:
[1] = 70 kg adult
[2] = human clinical trials; low (tracer) doses

Row | Structure (SMILES) | Estimated absorbed radiation dose, Adrenals [1] | Estimated absorbed radiation dose, Brain [1] | Estimated absorbed radiation dose, Breasts [1] | Estimated absorbed radiation dose, Gallbladder Wall [1] | Estimated absorbed radiation dose, Heart Wall [1] | Estimated absorbed radiation dose, Kidneys [1] | Estimated absorbed radiation dose, Liver [1] | Estimated absorbed radiation dose, Lower Large Intestine Wall [1] | Estimated absorbed radiation dose, Lungs [1] | Estimated absorbed radiation dose, Muscle [1] | Estimated absorbed radiation dose, Ovaries [1] | Estimated absorbed radiation dose, Pancreas [1] | Estimated absorbed radiation dose, Red marrow [1] | Estimated absorbed radiation dose, Skin [1] | Estimated absorbed radiation dose, Small Intestine [1] | Estimated absorbed radiation dose, Spleen [1] | Estimated absorbed radiation dose, Testes [1] | Estimated absorbed radiation dose, Thymus [1] | Estimated absorbed radiation dose, Thyroid [1] | Estimated absorbed radiation dose, Total Body [1] | further results
1 | CNc1ccc(/C=C/c2ccc(OCCOCCOCC[18F])nc2)cc1 [18F-AV-45] | 0.05 rad/mCi | 0.037 rad/mCi | 0.023 rad/mCi | 0.529 rad/mCi | 0.048 rad/mCi | 0.048 rad/mCi | 0.238 rad/mCi | 0.103 rad/mCi | 0.032 rad/mCi | 0.032 rad/mCi | 0.065 rad/mCi | 0.053 rad/mCi | 0.053 rad/mCi | 0.022 rad/mCi | 0.242 rad/mCi | 0.033 rad/mCi | 0.025 rad/mCi | 0.027 rad/mCi | 0.025 rad/mCi | 0.043 rad/mCi | Effective Dose ([1]; Effective Dose): 0.069 rad/mCi; Estimated absorbed radiation dose, Upper Large Intestine Wall [1]: 0.276 rad/mCi; Estimated absorbed radiation dose, Urinary bladder wall [1]: 0.1 rad/mCi; Estimated absorbed radiation dose, Uterus [1]: 0.058 rad/mCi; Most common adverse events [2]: headache, injection site reactions (injection site rash, extravasation, hemorrhage, irritation and puncture site hematoma), musculoskeletal pain, fatigue, and nausea
2 | OC[C@H]1O[C@@H](O)[C@H]([18F])[C@@H](O)[C@@H]1O [FDG] | 0.048 rad/mCi | 0.07 rad/mCi | 0.034 rad/mCi | 0.049 rad/mCi | 0.22 rad/mCi | 0.074 rad/mCi | 0.058 rad/mCi | 0.051 rad/mCi | 0.064 rad/mCi | 0.039 rad/mCi | 0.053 rad/mCi | 0.096 rad/mCi | 0.047 rad/mCi | 0.03 rad/mCi | 0.047 rad/mCi | 0.14 rad/mCi | 0.041 rad/mCi | 0.044 rad/mCi | 0.039 rad/mCi | 0.043 rad/mCi | Critical organ for radiation dose [1]: urinary bladder wall, followed by heart, spleen and pancreas; Estimated absorbed radiation dose, Upper Large Intestine Wall [1]: 0.046 rad/mCi; Estimated absorbed radiation dose, Urinary bladder wall [1]: 0.32 rad/mCi; Estimated absorbed radiation dose, Uterus [1]: 0.062 rad/mCi
